Values of other authors, collected in patent publication US10238678B2, “Therapeutic methods” (GlaxoSmithKline LLC, priority 2011, dated 2019).

NC(=O)c1ncn([C@@H]2O[C@H](CO)[C@@H](O)[C@H]2O)n1 [Ribavirin]
patients with significant hemolysis (currently recommended doses): 10-20% | teratogenicity and embryotoxicity (in vivo): teratogenic and embryotoxic
